Values of other authors, collected in article PMC9835671 (The Pediatric Infectious Disease Journal, 2022).
Values after ≈ are worked out from the molar mass of the structure shown. Like-named read-outs stand apart in the source and are kept apart here.

Tests used:
[1] = adults
serum albumin = conditions: intravenously administered
S aureus [2] = test system: S aureus
S aureus [3] = conditions: neutropenic murine thigh infection model
S aureus [4] = conditions: adult popPK model; 1000-mg (double-dose) and 1500-mg (single-dose) doses; MIC ≤2 mg/L
ABSSSI = conditions: for Clinical response: microbiological ITT population

terminal elimination half-life (t1/2) [1]: > 14 days
bound to serum albumin (serum albumin): ~ 93%
unbound form (serum albumin): 7%
MIC90 (S aureus [2]; against S aureus): 0.03 µg/mL (≈ 0.0165 µM)
24-hour fAUC/MIC target for bacterial stasis (S aureus [3]): 27.1 h
Structure (SMILES): CN[C@H]1C(=O)N[C@@H]2Cc3ccc(cc3)Oc3cc4cc(c3O[C@@H]3O[C@H](C(=O)O)[C@@H](O)[C@H](O)[C@H]3NC(=O)CCCCCCCCC(C)C)Oc3ccc(cc3Cl)[C@@H](O)[C@@H]3NC(=O)[C@H](NC(=O)[C@@H]4NC(=O)[C@@H](NC2=O)c2cc(cc(O)c2Cl)Oc2cc1ccc2O)c1ccc(O)c(c1)-c1c(O[C@H]2O[C@H](CO)[C@@H](O)[C@H](O)[C@@H]2O)cc(O)cc1[C@@H](C(=O)NCCCN(C)C)NC3=O [dalbavancin]
CLSI susceptibility breakpoint (S aureus [2]; Clinical and Laboratory Standards Institute): 0.25 µg/mL
simulated patients predicted to achieve the stasis target (S aureus [4]): > 99%
Clinical response (ABSSSI; double-dose regimen, end-of-treatment): 97.3%
Clinical response (ABSSSI; double-dose regimen, follow-up): 97.3%
Clinical response (ABSSSI; single-dose regimen, end-of-treatment): 94.8%
Clinical response (ABSSSI; single-dose regimen, follow-up): 97.4%
patients who achieved a clinical cure (ABSSSI; test-of-cure): > 96%
